Reference: patent publication US20190187129A1, “CANCER MODELING PLATFORMS AND METHODS OF USING THE SAME” (Wake Forest University Health Sciences, priority 2016, published 2019)

Legend:
SW480 cells [1] = assay: 2D drug screen, MTS assay; type: cell-based; conditions: Homo sapiens, read-out: relative cellular viability (MTS, relative to control)
Procedure: Cancer cells seeded directly into wells were given 4-5 hours to reattach to the bottom of the wells. After that time, the anticancer drug solutions were administered in place of the media (FIG. 6, panel A) and an MTS assay was carried out 2 days later to determine cell viability. […] At 100 μM concentrations of Regorafenib and Sorafenib, and 100 mM concentrations of 5-FU, cellular viability remained below 20% that of the control for all four of the colorectal cancer cell lines utilized. However, screening with Dabrafenib and Trametinib produced diverging results from the other three anticancer drugs at higher concentrations. […] When treated with 1 mM concentrations of 5-FU, relative cellular viability was approximately 39% for SW480 cells and remained between 10%-22% for the HCT116, HT29, and CACO2 cells. These values were considerably lower than the relative cellular viability values for the lowest concentrations of the other anticancer drugs.
Cell Seeding: The original 15 mL centrifuge tubes containing the 10 mL of DMEM-10, cells, and trypsin were placed into a centrifuge. The centrifugation setting was 1500 RPM and at maximal acceleration for 5 minutes. After that time, the media and trypsin mixture was aspirated from the tubes, leaving the cell pellets still intact. 5 mL of DMEM-10 was then pipetted into each of the tubes, resuspending the cells in the process. Calculated volumes of the 5 mL cell-media solution were determined to ensure that 25,000 cells of each of the four colorectal cancer cell lines were seeded directly into each of the wells of a polystyrene clear-bottom 96-well plate. 100 μL of DMEM-10 media was then pipetted directly into the wells. The 96-well plates were incubated at 37° C. and 5% CO2 for 5 hours to allow the cells to reattach themselves to the bottom of the wells until media was aspirated and anticancer drug solutions were added.
Addition of Anticancer Drugs for Screening: The anticolorectal cancer drugs used in this screening included 5-FU, Regorafenib, Sorafenib, Trametinib, and Dabrafenib (Sigma-Aldrich, Missouri, USA)). High concentration drug stock solutions were created with DMSO. Lower concentration drug solutions were created by mixing the anticancer drug stocks with DMEM-10 media. […] drug solutions were generated for 5-FU; 1 μM, 10 μM, and 100 μM drug solutions were generated for Regorafenib, Sorafenib, and Dabrafenib; and 1 nM, 10 nM, and 100 nM drug solutions were generated for Trametinib. Media was carefully aspirated from the wells and 200 μL of the various drug-media solutions were placed into the wells containing cells. Three duplicates were generated for each anticancer drug concentration with each of the different cell types to calculate averages and run statistics on the data generated. Well plates were then incubated at 37° C. and 5% CO2 for […].
Cell viability assay: Cell viability was determined 48 hours after exposure to the anticancer drug solutions. The viability of the cells was examined by the CellTiter 96® AQueous One Solution Cell Proliferation (MTS) assay (Promega, Wisconsin, USA). The anticancer drug-media solutions were aspirated from the wells and 200 μL of the MTS reagent was carefully pipetted into the wells. The incubation time for the cells with the MTS reagent was approximately 45 minutes. The cell viability assay was performed on another 96-well plate and the absorbance was quantified by the EnVision Multilabel Plate Reader (PerkinElmer, California, USA).

HT29 cells = assay: 3D hyaluronan-based hydrogel construct drug screen, MTS assay; type: cell-based; conditions: Homo sapiens
Procedure: (§1) Polydimethylsiloxane, or PDMS, was used to coat the bottom of the wells. Cells were embedded within the hyaluronan-based hydrogel and were given 5 days to acclimate to their three-dimensional environment and on day 5 were administered different anticancer drug solutions (FIG. 7, panel A). […] At 100 μM concentrations of Regorafenib and Sorafenib, cellular viability remained below 25% that of the control for all four of the colorectal cancer cell lines utilized. The only exception to this was when 100 μM Regorafenib was administered to CACO2 cells and the percent relative cell viability rose to approximately 48%. […] At a 100 μM concentration, Dabrafenib had greater efficacy in targeting the HCT116 and SW480 cell lines, which had relative cellular viability values of 38% and 43%, as opposed to the HT29 and CACO2 cell lines, which had higher cell viability values of 93% and 75%. 100 μM concentrations of Trametinib produced relative cellular viability results that fell within a narrow range for the four colorectal cell lines with values of 54% for SW480 cells and 74% for HT29 cells.
(§2) Well Coating with PDMS and Cell Isolation: Polydimethylsiloxane, or PDMS, (DOW Corning, North Carolina, USA) was used at a 1:10 curing agent ratio to coat the bottom of the 96-well plates and the plates were then placed in a 80° C. oven for at least one hour. Cells were passaged in the same methods previously mentioned (A) with the desire to place 10 μL 3D hyaluronan-based hydrogel constructs containing 100,000 cells each ([…]) into the wells of a 96-wells plate for all four colorectal cancer cell types. Depending on the cell count, a desired number of cells were isolated in new 15 mL centrifuge tubes as cell-media solution and underwent centrifugation.
(§3) Hydrogel Components of the Single-Cell Type Constructs: The hyaluronic acid-based hydrogel (ESI BIO, California, USA) was produced using a mixture of three components: Heprasil, Gelin-S, and Extralink PEGDA 2-ARM Acrylate crosslinker. These components were mixed in a 2:2:1 ratio by volume. 0.1% Irgacure photoinitiator (Sigma-Aldrich, Missouri, USA) was added to each of the three components prior to their mixture and the three components were placed in a 37° C. incubator for a ˜30 minutes to solubilize.
(§4) Forming Organoid Constructs: Once solubilized, the media was aspirated from the 15 mL centrifuge tube (post-centrifugation) and the cells were isolated as a pellet. The hydrogel components were added directly into the centrifuge tube containing the cells and the cells were carefully resuspended in the mixture. 10 μL of the gel-cell solution was placed in the center of the wells on the PDMS coating. This was continued for all wells containing cells and was repeated for each cell type. After this point, the gel can be exposed to UV light from a BlueWave 200 spot light (Dymax, Connecticut, USA) to solidify the hydrogel, or one can wait ˜30 minutes for the gel to form on its own. DMEM-10 media was then placed in the wells and the constructs were incubated for 5 days.
(§5) Anticancer Drug Screening and Cell Viability: The same five anticancer drugs were added on Day 5 and the cell viability assay occurred on Day 7.

SW480 cells [2] = assay: as above; type: cell-based; conditions: Homo sapiens
Procedure: as §1, §2, §3, §4, §5

CACO2 cells = assay: as above; conditions: Homo sapiens, Caco-2, 3D, read-out: percent relative cell viability (MTS, relative to control)
Procedure: as §1, §2, §3
Forming Organoid Constructs: Once solubilized, the media was aspirated from the 15 mL centrifuge tube (post-centrifugation) and the cells were isolated as a pellet. The hydrogel components were added directly into the centrifuge tube containing the cells and the cells were carefully resuspended in the mixture. 10 μL of the gel-cell solution was placed in the center of the wells on the PDMS coating. This was continued for all wells containing cells and was repeated for each cell type. […]

| Compound | viability at 1000 µM (SW480 cells [1]; 1 mM) | viability at 100000 µM (SW480 cells [1]; 100 mM) | viability at 10000 µM (HT29 cells; HT-29, 10 mM, HT29, read-out: percent relative cell viability (MTS, relative to control)) | viability at 10000 µM (SW480 cells [2]; 10 mM, SW480, read-out: percent relative cell viability (MTS, relative to control)) | viability at 100000 µM (SW480 cells [2]; 100 mM, SW480, read-out: percent relative cell viability (MTS, relative to control)) | viability at 10000 µM (CACO2 cells; 10 mM, CACO2) | viability at 100 µM (SW480 cells [1]; 100 μM) | viability at 100 µM (HT29 cells; HT-29, 100 μM, HT29, drug day 5, assay day 7, read-out: percent relative cell viability (MTS, relative to control)) | viability at 100 µM (SW480 cells [2]; 100 μM, SW480, drug day 5, assay day 7, read-out: percent relative cell viability (MTS, relative to control)) | viability at 100 µM (CACO2 cells; 100 μM, CACO2, drug day 5, assay day 7) |
| --- | --- | --- | --- | --- | --- | --- | --- | --- | --- | --- |
| O=c1[nH]cc(F)c(=O)[nH]1 [5-FU, 5-Fluorouracil] | ~39% | < 20% | 50% | 9% | 48% | 22% |  |  |  |  |
| CNC(=O)c1cc(Oc2ccc(NC(=O)Nc3ccc(Cl)c(C(F)(F)F)c3)c(F)c2)ccn1 [Regorafenib] |  |  |  |  |  |  | < 20% | < 25% | < 25% | ~48% |
